For series [1] the following is noted: accepted value; cited from earlier work.
The subject of the next series is mice. The settings on record: mouse, in vivo.
The test system of a further series is humans. Description: administration to humans, adverse effects. Type of series: in vivo, human. The settings on record: doses exceeding 15 g/m^2.
The test system of the next series is dogs. The note with it: dog, in vivo.
The next series deals with aldose reductase. The settings on record: humans, mainly in the 1980s; cited from earlier work.

SMILES strings stand for the structures.

As for `[Cl-].[Na+]` [common table salt], in series [1], the “oral LD50” value is listed as 3750 mg/kg.
On to `O=S(=O)([O-])CCSSCCS(=O)(=O)[O-].[Na+].[Na+]`, for which the adverse effects result in the series on mice, with humans and with dogs was “no adverse effects” in each case.
Take `O=C1NC(=O)[C@@]2(CCOc3ccc(F)cc32)N1` [sorbinil]: in the series with aldose reductase, the “efficacy in slowing the progress of diabetic retinopathy” value is listed as “some efficacy” and the tolerability in patients result is listed as “not well tolerated”.

Source of the values: patent US6251881A, “Method of treating diabetic angiopathy” (priority 1999, dated 2001).
